Test results reported in patent US10562912B2 (C&C Research Laboratories, priority 2013, dated 2020).

Columns and labels:
Assay type in all cases: cell-based
HEL92.1.7 = test: Cell growth inhibition assay, blood cancer cell line HEL92.1.7; settings: Homo sapiens, HEL 92.1.7, HEL92.1.7 blood cancer cell line
Outline: (§1)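 Cells were seeded at 3,000/well (HCT116, DU-145) or 5,000/well (SW626 and the others) and exposed to serial compound dilutions for 72 to 96 h at 37 °C under 5% CO2. Viability was read as CellTiter-Glo luminescence against 0.1% DMSO and cell-free wells.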

LNCaP = test: Cell growth inhibition assay, prostate cancer cell line LNCaP (medium with 10 ng/mL IL-6); settings: Homo sapiens, medium supplemented with 10 ng/mL of IL-6, 10,000 cells/well
STAT3 = target: T1, STAT3 (Homo sapiens, UniProt P40763); test: STAT3 reporter gene assay (luciferase), LNCaP stable cell line (pSTAT3-TA-luc), IL-6 stimulation
T1 construct: plasmid pSTAT3-TA-luc), which contains a stably operating STAT3 promoter; endogenous in cells
Outline: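 LNCaP cells stably carrying pSTAT3-TA-luc, in RPMI1640 with 3% DCC-FBS, were treated with compound and then stimulated with 10 ng/mL IL-6 for 24–48 h at 37 °C. Luciferase activity was measured in lysates. A parallel plate measured viability by CellTiter-Glo, with stimulated 0.1% DMSO wells as the positive control.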

DU-145 = test: Cell growth inhibition assay, prostate cancer cell line DU-145; settings: Homo sapiens, DU-145 prostate cancer cell line
Outline: as §1

T1 sequence (P40763 whole entry): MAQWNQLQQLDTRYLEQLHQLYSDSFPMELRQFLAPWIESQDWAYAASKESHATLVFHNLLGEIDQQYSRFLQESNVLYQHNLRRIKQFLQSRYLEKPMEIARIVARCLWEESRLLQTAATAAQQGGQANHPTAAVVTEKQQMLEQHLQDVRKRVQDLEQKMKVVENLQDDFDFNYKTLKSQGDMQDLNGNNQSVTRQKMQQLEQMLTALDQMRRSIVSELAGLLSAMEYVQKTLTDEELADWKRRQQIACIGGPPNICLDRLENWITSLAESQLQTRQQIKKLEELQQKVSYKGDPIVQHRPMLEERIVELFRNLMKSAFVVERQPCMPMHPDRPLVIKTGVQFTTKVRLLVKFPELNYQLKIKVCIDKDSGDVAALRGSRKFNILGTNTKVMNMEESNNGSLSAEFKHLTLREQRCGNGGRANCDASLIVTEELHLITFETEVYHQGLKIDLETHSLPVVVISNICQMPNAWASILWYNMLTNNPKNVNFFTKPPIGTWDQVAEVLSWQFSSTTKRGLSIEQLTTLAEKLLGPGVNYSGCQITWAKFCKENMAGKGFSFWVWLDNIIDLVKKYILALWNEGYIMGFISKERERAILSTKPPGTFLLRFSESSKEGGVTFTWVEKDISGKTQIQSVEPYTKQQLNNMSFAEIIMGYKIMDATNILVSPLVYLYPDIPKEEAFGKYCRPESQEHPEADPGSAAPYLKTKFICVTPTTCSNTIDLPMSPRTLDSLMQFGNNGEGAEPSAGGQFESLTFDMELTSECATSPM

Row | IC50 (HEL92.1.7) [µM] | IC50 (LNCaP) [µM] | IC50 (STAT3) [µM] | IC50 (DU-145) [µM] | SMILES
1 | 0.007 | 0.006 | 0.002 | 0.002 | CC(C)Oc1cc(OC(F)(F)F)cc(C(C)(C)c2cc(Cl)cc(NC(=O)c3cc4cc(N(C)S(C)(=O)=O)c(F)cc4s3)c2)c1 [Example 215, N-(3-chloro-5-(2-(3-isopropoxy-5-(trifluoromethoxy)phenyl)propan-2-yl)phenyl)-6-fluoro-5-(N-methylmethylsulfonamido)benzo[b]thiophene-2-carboxamide]
2 | > 1.1 | > 1.1 | 2.37 | > 1.1 | CC(C)(c1cc(Cl)cc(NC(=O)c2cc3cc(NS(C)(=O)=O)ccc3s2)c1)n1ncccc1=O [Example 190, N-(3-chloro-5-(2-(6-oxopyridazin-1(6H)-yl)propan-2-yl)phenyl)-5-(methylsulfonamido)benzo[b]thiophene-2-carboxamide]
3 | 1.05 | 0.36 | 0.38 | 0.14 | CC(C)(c1cc(Br)cc(NC(=O)c2cc3cc(NS(C)(=O)=O)ccc3s2)c1)c1cc(CN2CCN(C3COC3)CC2)cc(OC(F)(F)C(F)F)c1 [Example 141, N-(3-bromo-5-(2-(3-((4-(oxetan-3-yl)piperazin-1-yl)methyl)-5-(1,1,2,2-tetrafluoroethoxy)phenyl)propan-2-yl)phenyl)-5-(methylsulfonamido)benzo[b]thiophene-2-carboxamide]
4 | 0.2 | 0.064 | 0.069 | 0.052 | CC(C)(c1cc(Cl)cc(NC(=O)c2cc3cc(NS(C)(=O)=O)ccc3s2)c1)c1ccc(F)c(F)c1 [Example 162, N-(3-chloro-5-(2-(3,4-difluorophenyl)propan-2-yl)phenyl)-5-(methylsulfonamido)benzo[b]thiophene-2-carboxamide]
5 | > 1.1 | 0.9 | 0.72 | > 1.1 | CC(C)(c1cc(Cl)cc(NC(=O)c2cc3cc(NS(C)(=O)=O)ccc3s2)c1)N1CCCCC1 [Example 164, N-(3-chloro-5-(2-(piperidin-1-yl)propan-2-yl)phenyl)-5-(methylsulfonamido)benzo[b]thiophene-2-carboxamide]
6 | 0.69 | 0.17 | 0.11 | 0.073 | CN(C)S(=O)(=O)N1CCN(Cc2cc(OC(F)(F)C(F)F)cc(C(C)(C)c3cc(Br)cc(NC(=O)c4cc5cc(NS(C)(=O)=O)ccc5s4)c3)c2)CC1 [Example 139, N-(3-bromo-5-(2-(3-((4-(N,N-dimethylsulfamoyl)piperazin-1-yl)methyl)-5-(1,1,2,2-tetrafluoroethoxy)phenyl)propan-2-yl)phenyl)-5-(methylsulfonamido)benzo[b]thiophene-2-carboxamide]
7 | > 1.1 | > 1.1 | 3 | > 1.1 | C=CS(=O)(=O)Nc1ccc2sc(C(=O)Nc3cc(Cl)cc(C(C)(C)c4cc(OC(C)C)cc(OC(F)(F)F)c4)c3)cc2c1 [Example 207, N-(3-chloro-5-(2-(3-isopropoxy-5-(trifluoromethoxy)phenyl)propan-2-yl)phenyl)-5-(vinylsulfonamido)benzo[b]thiophene-2-carboxamide]
8 | 0.48 | 0.47 | 0.29 | 0.18 | CC(C)Oc1cc(-c2cnn(C)c2)cc(C(C)(C)c2cc(Cl)cc(NC(=O)c3cc4cc(NS(C)(=O)=O)ccc4s3)c2)c1 [Example 143, N-(3-chloro-5-(2-(3-isopropoxy-5-(1-methyl-1H-pyrazol-4-yl)phenyl)propan-2-yl)phenyl)-5-(methylsulfonamido)benzo[b]thiophene-2-carboxamide]
9 | 0.34 | 0.15 | 0.055 | 0.11 | CC(C)Oc1cc(OC(F)(F)F)cc(C(C)(C)c2cc(Cl)cc(NC(=O)c3nc4cc(NS(C)(=O)=O)ccc4s3)c2)c1 [Example 81, N-(3-chloro-5-(2-(3-isopropoxy-5-(trifluoromethoxy)phenyl)propan-2-yl)phenyl)-5-(methylsulfonamido)benzo[d]thiazole-2-carboxamide]
10 | > 1.1 | > 1.1 | > 10 | > 1.1 | CC(C)Oc1cc(OC(F)(F)F)cc(C(C)(C)c2cc(Cl)cc(NC(=O)c3cc4c(N5CCOCC5)c(NS(C)(=O)=O)ccc4s3)c2)c1 [Example 66, N-(3-chloro-5-(2-(3-isopropoxy-5-(trifluoromethoxy)phenyl)propan-2-yl)phenyl)-5-(methylsulfonamido)-4-morpholinobenzo[b]thiophene-2-carboxamide]
11 | 0.95 | 1.1 | 0.38 | 0.3 | CC(C)Oc1cc(OC(F)(F)F)cc(C(C)(C)c2cc(Cl)cc(N(C)C(=O)c3cc4cc(N(C)S(C)(=O)=O)c(F)cc4s3)c2)c1 [Example 216, N-(3-chloro-5-(2-(3-isopropoxy-5-(trifluoromethoxy)phenyl)propan-2-yl)phenyl)-6-fluoro-N-methyl-5-(N-methylmethylsulfonamido)benzo[b]thiophene-2-carboxamide]

Continued, compound first:

Row | SMILES | IC50 (HEL92.1.7) [µM] | IC50 (LNCaP) [µM] | IC50 (STAT3) [µM] | IC50 (DU-145) [µM]
12 | CC(C)(c1ccc(Cl)cc1)c1cc(Cl)cc(NC(=O)c2cc3cc(NS(C)(=O)=O)ccc3s2)c1 [Example 158, N-(3-chloro-5-(2-(4-chlorophenyl)propan-2-yl)phenyl)-5-(methylsulfonamido)benzo[b]thiophene-2-carboxamide] | 0.22 | 0.056 | 0.12 | 0.048
13 | CC(C)(c1cc(Cl)cc(NC(=O)c2cc3cc(NS(C)(=O)=O)ccc3s2)c1)c1cc(OCC(F)(F)F)cc(OC(F)(F)F)c1 [Example 88, N-(3-chloro-5-(2-(3-(2,2,2-trifluoroethoxy)-5-(trifluoromethoxy)phenyl)propan-2-yl)phenyl)-5-(methylsulfonamido)benzo[b]thiophene-2-carboxamide] | 0.087 | 0.024 | 0.015 | 0.008
14 | CC(C)(c1cc(Cl)cc(NC(=O)c2cc3cc(NS(C)(=O)=O)ccc3s2)c1)c1cc(OC2CCNCC2)cc(OC(F)(F)F)c1 [Example 96, N-(3-chloro-5-(2-(3-(piperidin-4-yloxy)-5-(trifluoromethoxy)phenyl)propan-2-yl)phenyl)-5-(methylsulfonamido)benzo[b]thiophene-2-carboxamide] | > 1.1 | > 1.1 | 3.4 | > 1.1
15 | COc1cc(OC(F)(F)F)cc(-c2cc(Cl)cc(NC(=O)c3cc4cc(N(C)S(C)(=O)=O)c(F)cc4s3)c2)c1 [Example 326, N-(5-chloro-3′-methoxy-5′-(trifluoromethoxy)-[1,1′-biphenyl]-3-yl)-6-fluoro-5-(N-methylmethylsulfonamido)benzo[b]thiophene-2-carboxamide] | 0.26 | 0.14 | 0.1 | 0.064
16 | CC(C)Oc1cc(OC(F)(F)F)cc(C(C)(C)c2cc(Cl)cc(NC(=O)c3cc4cc(NC(=O)OC(C)(C)C)ccc4s3)c2)c1 [Example 194, tert-butyl (2-((3-chloro-5-(2-(3-isopropoxy-5-(trifluoromethoxy)phenyl)propan-2-yl)phenyl)carbamoyl)benzo[b]thiophen-5-yl)carbamate] | > 1.1 | > 1.1 | > 10 | > 1.1
17 | CC(C)Oc1cc(OC(F)(F)F)cc(C(C)(C)c2cc(Cl)cc(NC(=O)c3cc4cc(NS(=O)(=O)CCN5CCOCC5)ccc4s3)c2)c1 [Example 209, N-(3-chloro-5-(2-(3-isopropoxy-5-(trifluoromethoxy)phenyl)propan-2-yl)phenyl)-5-((2-morpholinoethyl)sulfonamido)benzo[b]thiophene-2-carboxamide] | 0.099 | 0.053 | 0.043 | 0.027
18 | CS(=O)(=O)Nc1ccc2sc(C(=O)Nc3cc(Cl)cc(Oc4ccc(Cl)cc4)c3)cc2c1 [Example 445, N-(3-chloro-5-(4-chlorophenoxy)phenyl)-5-(methylsulfonamido)benzo[b]thiophene-2-carboxamide] | 0.15 | 0.074 | 0.066 | 0.055
19 | CC(C)Oc1cc(OC(F)(F)F)cc(C2(c3cc(Cl)cc(NC(=O)c4cc5cc(N(C)S(C)(=O)=O)c(F)cc5s4)c3)CC2)c1 [Example 430, N-(3-chloro-5-(1-(3-isopropoxy-5-(trifluoromethoxy)phenyl)cyclopropyl)phenyl)-6-fluoro-5-(N-methylmethylsulfonamido)benzo[b]thiophene-2-carboxamide] | 0.014 | 0.006 | 0.012 | 0.006
20 | CN(C)CCOc1cc(OC(F)(F)F)cc(C(C)(C)c2cc(Cl)cc(NC(=O)c3cc4cc(NS(C)(=O)=O)ccc4s3)c2)c1 [Example 94, N-(3-chloro-5-(2-(3-(2-(dimethylamino)ethoxy)-5-(trifluoromethoxy)phenyl)propan-2-yl)phenyl)-5-(methylsulfonamido)benzo[b]thiophene-2-carboxamide] | 0.35 | 0.27 | 1.12 | 0.2
21 | CC(C)Oc1cc(OC(F)(F)F)cc(C(C)(C)c2cc(Cl)cc(NC(=O)c3cc4cc(NS(=O)(=O)C(C)C)ccc4s3)c2)c1 [Example 203, N-(3-chloro-5-(2-(3-isopropoxy-5-(trifluoromethoxy)phenyl)propan-2-yl)phenyl)-5-((1-methylethyl)sulfonamido)benzo[b]thiophene-2-carboxamide] | 0.017 | 0.023 | 0.006 | 0.008
